Read-outs that look alike come from different tables or passages of the source.
Assays:
[1] = tested on: Key Broadleaf Weed and Crop Species; assay: Post-Emergent Test II: postemergent herbicidal activity, visual rating after 14 d (Table 7); type: in vivo; details: post-emergence, 336 h; for pest or weed control at 35 g/ha: 35 g ai/ha; for pest or weed control at 70 g/ha: 70 g ai/ha; for pest or weed control at 140 g/ha: 140 g ai/ha
How it was run: (§1)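 Visual 0-100% injury score (0 no injury, 100 complete kill) at 14 d post-spray, relative to untreated plants. Seedlings at 1st-2nd true leaf stage; track sprayer at 187 L/ha, highest rate plus ½×, ¼×, ⅛×, 1/16× serial dilutions. Subirrigated after treatment.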

[2] = tested on: Key Grass and Sedge Weeds as well as Grass Crops; assay: Post-Emergent Test II: postemergent herbicidal activity, visual rating after 14 d (Table 8); type: in vivo; details: post-emergence, 336 h; for pest or weed control at 35 g/ha: 35 g ai/ha; for pest or weed control at 70 g/ha: 70 g ai/ha; for pest or weed control at 140 g/ha: 140 g ai/ha
How it was run: as §1

[3] = lambsquarters (Chenopodium album), read-out: Visual Growth Reduction (%) 14 Days After Application CHEAL
[4] = oilseed rape, canola (Brassica napus), read-out: Visual Growth Reduction (%) 14 Days After Application BRSNN
[5] = redroot pigweed (Amaranthus retroflexus), read-out: Visual Growth Reduction (%) 14 Days After Application AMARE
[6] = sunflower (Helianthus annuus), read-out: Visual Growth Reduction (%) 14 Days After Application HELAN
[7] = velvetleaf (Abutilon theophrasti), read-out: Visual Growth Reduction (%) 14 Days After Application ABUTH
[8] = wild poinsettia (Euphorbia heterophylla), read-out: Visual Growth Reduction (%) 14 Days After Application EPHHL
[9] = barnyardgrass (Echinochloa crus-galli), read-out: Visual Growth Reduction (%) 14 Days After Application ECHCG
[10] = giant foxtail (Setaria faberi), read-out: Visual Growth Reduction (%) 14 Days After Application SETFA
[11] = maize, corn (Zea mays), read-out: Visual Growth Reduction (%) 14 Days After Application ZEAMX
[12] = rice (Oryza sativa), read-out: Visual Growth Reduction (%) 14 Days After Application ORYSA
[13] = wheat, spring (Triticum aestivum), read-out: Visual Growth Reduction (%) 14 Days After Application TRZAS
[14] = yellow nutsedge (Cyperus esculentus), read-out: Visual Growth Reduction (%) 14 Days After Application CYPES

| SMILES | pest or weed control at 35 g/ha [1, 3] | pest or weed control at 70 g/ha [1, 3] | pest or weed control at 140 g/ha [1, 3] | pest or weed control at 35 g/ha [1, 4] | pest or weed control at 70 g/ha [1, 4] | pest or weed control at 140 g/ha [1, 4] | pest or weed control at 35 g/ha [1, 5] | pest or weed control at 70 g/ha [1, 5] | pest or weed control at 140 g/ha [1, 5] | pest or weed control at 35 g/ha [1, 6] | pest or weed control at 70 g/ha [1, 6] | pest or weed control at 140 g/ha [1, 6] | pest or weed control at 35 g/ha [1, 7] | pest or weed control at 70 g/ha [1, 7] | pest or weed control at 140 g/ha [1, 7] | pest or weed control at 35 g/ha [1, 8] | pest or weed control at 70 g/ha [1, 8] | pest or weed control at 140 g/ha [1, 8] | pest or weed control at 35 g/ha [2, 9] | pest or weed control at 70 g/ha [2, 9] | other results |
| --- | --- | --- | --- | --- | --- | --- | --- | --- | --- | --- | --- | --- | --- | --- | --- | --- | --- | --- | --- | --- | --- |
| COc1c(N)nc(-c2cc3c(cc2F)OC(F)(F)O3)nc1C(=O)O [Compound 68] | 0 to 29% | 0 to 29% | 0 to 29% | 0 to 29% | 0 to 29% | 0 to 29% | 0 to 29% | 0 to 29% | 0 to 29% | 30 to 44% | 45 to 59% | 60 to 74% | 0 to 29% | 0 to 29% | 0 to 29% | 75 to 84% | 95 to 100% | 95 to 100% | 60 to 74% | 60 to 74% | pest or weed control at 140 g/ha [2, 9]: 75 to 84%; pest or weed control at 35 g/ha [2, 10]: 60 to 74%; pest or weed control at 70 g/ha [2, 10]: 60 to 74%; pest or weed control at 140 g/ha [2, 10]: 60 to 74%; pest or weed control at 35 g/ha [2, 11]: 45 to 59%; pest or weed control at 70 g/ha [2, 11]: 60 to 74%; pest or weed control at 140 g/ha [2, 11]: 75 to 84%; pest or weed control at 35 g/ha [2, 12]: 0 to 29%; pest or weed control at 70 g/ha [2, 12]: 0 to 29%; pest or weed control at 140 g/ha [2, 12]: 0 to 29%; pest or weed control at 35 g/ha [2, 13]: 0 to 29%; pest or weed control at 70 g/ha [2, 13]: 45 to 59%; pest or weed control at 140 g/ha [2, 13]: 45 to 59%; pest or weed control at 35 g/ha [2, 14]: 0 to 29%; pest or weed control at 70 g/ha [2, 14]: 0 to 29%; pest or weed control at 140 g/ha [2, 14]: 0 to 29% |
| COC(=O)c1nc(-c2ccc3c(c2)OC(F)(F)O3)c(F)c(N)c1Cl [Compound 6] | 95 to 100% | 95 to 100% | 95 to 100% | 75 to 84% | 85 to 94% | 85 to 94% | 75 to 84% | 75 to 84% | 95 to 100% | 85 to 94% | 85 to 94% | 95 to 100% | 95 to 100% | 95 to 100% | 95 to 100% | 85 to 94% | 85 to 94% | 95 to 100% | 95 to 100% | 95 to 100% | pest or weed control at 140 g/ha [2, 9]: 95 to 100%; pest or weed control at 35 g/ha [2, 10]: 60 to 74%; pest or weed control at 70 g/ha [2, 10]: 75 to 84%; pest or weed control at 140 g/ha [2, 10]: 85 to 94%; pest or weed control at 35 g/ha [2, 11]: 85 to 94%; pest or weed control at 70 g/ha [2, 11]: 85 to 94%; pest or weed control at 140 g/ha [2, 11]: 85 to 94%; pest or weed control at 35 g/ha [2, 12]: 30 to 44%; pest or weed control at 70 g/ha [2, 12]: 45 to 59%; pest or weed control at 140 g/ha [2, 12]: 45 to 59%; pest or weed control at 35 g/ha [2, 13]: 45 to 59%; pest or weed control at 70 g/ha [2, 13]: 60 to 74%; pest or weed control at 140 g/ha [2, 13]: 60 to 74%; pest or weed control at 35 g/ha [2, 14]: 95 to 100%; pest or weed control at 70 g/ha [2, 14]: 95 to 100%; pest or weed control at 140 g/ha [2, 14]: 95 to 100% |
